Measured values as given in patent US10259810B2, “N-sulfonylated pyrazolo[3,4-b]pyridin-6-carboxamides and method of use” (AbbVie S.à.r.l., priority 2015, dated 2019).

Tests used:
[1] = target: T1, ΔF508-CFTR (Homo sapiens, UniProt P13569, DEL508-508); assay: CFTR cell surface levels using HRP-tagged ΔF508-CFTR expressing CFBE cells, in the presence of a co-corrector; assay type: cell-based
T1 construct: host or cells: CFBE41o-, doxycycline-inducible
Method in brief: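 Chemiluminescent read-out of surface HRP (15 min, dark) after PBS washes. Activity is normalized as 100×(sample−DMSO)/(3 μM co-corrector alone−DMSO).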

[2] = target: T1, ΔF508-CFTR; assay: CFTR cell surface levels using HRP-tagged ΔF508-CFTR expressing CFBE cells, intrinsic corrector capacity; assay type: cell-based; design: % Activation: concentration or dose not given beside the values
Method in brief: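 Read-out: chemiluminescent HRP activity of ECL4-HRP-tagged ΔF508-CFTR at the cell surface, 15 min substrate in dark. Normalized as 100×(sample−DMSO)/(positive control−DMSO).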

[3] = HRP-tagged ΔF508-CFTR CFBE cells, in the presence of 3 μM co-corrector
[4] = HRP-tagged ΔF508-CFTR CFBE cells, in the presence of 3 μM co-corrector, read-out: EC50
[5] = HRP-tagged ΔF508-CFTR expressing CFBE41o- cells, compound alone (intrinsic corrector capacity), 20 hours at 33° C.
[6] = HRP-tagged ΔF508-CFTR expressing CFBE41o- cells, compound alone (intrinsic corrector capacity), 20 hours at 33° C., read-out: EC50

T1 sequence (P13569 with tags, fused parts or gaps DEL508-508): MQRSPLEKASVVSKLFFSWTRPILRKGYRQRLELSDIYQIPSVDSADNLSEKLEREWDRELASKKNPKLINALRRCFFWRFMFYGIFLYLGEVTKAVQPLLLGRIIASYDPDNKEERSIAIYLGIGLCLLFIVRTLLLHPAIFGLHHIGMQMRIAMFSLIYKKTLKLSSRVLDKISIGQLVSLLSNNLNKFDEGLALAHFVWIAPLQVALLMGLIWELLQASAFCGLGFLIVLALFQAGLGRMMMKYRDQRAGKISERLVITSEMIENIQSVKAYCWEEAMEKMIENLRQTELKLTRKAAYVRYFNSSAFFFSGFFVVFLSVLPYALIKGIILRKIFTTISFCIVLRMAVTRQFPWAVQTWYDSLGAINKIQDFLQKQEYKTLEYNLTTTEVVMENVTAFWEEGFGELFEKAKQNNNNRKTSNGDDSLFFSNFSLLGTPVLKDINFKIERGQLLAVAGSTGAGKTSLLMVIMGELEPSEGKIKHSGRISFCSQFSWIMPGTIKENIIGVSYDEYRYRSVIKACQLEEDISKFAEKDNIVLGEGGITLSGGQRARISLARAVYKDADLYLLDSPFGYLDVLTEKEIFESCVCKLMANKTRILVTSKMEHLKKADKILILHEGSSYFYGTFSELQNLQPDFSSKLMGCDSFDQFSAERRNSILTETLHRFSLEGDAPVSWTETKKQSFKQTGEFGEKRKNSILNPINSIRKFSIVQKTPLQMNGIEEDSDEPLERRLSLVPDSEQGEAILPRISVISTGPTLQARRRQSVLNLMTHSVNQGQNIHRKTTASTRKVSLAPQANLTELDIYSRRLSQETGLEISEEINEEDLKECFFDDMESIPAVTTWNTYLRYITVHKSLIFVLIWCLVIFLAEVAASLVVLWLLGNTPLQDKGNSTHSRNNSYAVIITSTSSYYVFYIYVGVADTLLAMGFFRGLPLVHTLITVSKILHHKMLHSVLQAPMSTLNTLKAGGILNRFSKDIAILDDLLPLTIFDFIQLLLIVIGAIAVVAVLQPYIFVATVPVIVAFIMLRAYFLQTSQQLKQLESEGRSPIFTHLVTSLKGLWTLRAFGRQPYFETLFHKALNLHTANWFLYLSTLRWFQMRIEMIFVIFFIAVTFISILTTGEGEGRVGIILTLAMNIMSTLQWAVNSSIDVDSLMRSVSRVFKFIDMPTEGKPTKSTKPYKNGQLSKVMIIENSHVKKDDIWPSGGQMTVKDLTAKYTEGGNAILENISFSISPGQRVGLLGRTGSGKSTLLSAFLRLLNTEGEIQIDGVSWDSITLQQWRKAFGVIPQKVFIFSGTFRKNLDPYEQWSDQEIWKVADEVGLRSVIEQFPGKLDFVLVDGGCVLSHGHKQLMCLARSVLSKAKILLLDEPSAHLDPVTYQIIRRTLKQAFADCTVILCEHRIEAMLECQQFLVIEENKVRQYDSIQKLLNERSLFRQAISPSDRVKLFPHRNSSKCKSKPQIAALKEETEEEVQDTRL

Compound | % Activation [1, 3] | EC50 [1, 4] | % Activation [2, 5] | EC50 [2, 6] | EC50 [1] | EC50 [2]
CC(C)Oc1nn(C2CCCCC2)c2nc(C(=O)NS(=O)(=O)N(C)C)cc(-c3ccc(CN4CCN(C)CC4)cc3)c12 [Compound 442, 1-cyclohexyl-N-(dimethylsulfamoyl)-4-{4-[(4-methylpiperazin-1-yl)methyl]phenyl}-3-[(propan-2-yl)oxy]-1H-pyrazolo[3,4-b]pyridine-6-carboxamide] | 342% | 1110 nM | 146.8% | 307 nM | – | –
COC1CCN(c2cc(C(=O)NS(C)(=O)=O)nc3c2c(C(C)C)nn3-c2cccc(N3CCOCC3)n2)CC1 [Compound 217, N-(methanesulfonyl)-4-(4-methoxypiperidin-1-yl)-1-[6-(morpholin-4-yl)pyridin-2-yl]-3-(propan-2-yl)-1H-pyrazolo[3,4-b]pyridine-6-carboxamide] | 418.27% | 257 nM | 246.77% | 458 nM | – | –
COCC1CCN(c2cc(C(=O)NS(=O)(=O)N3CCCN(C(C)=O)CC3)nc3c2c(C2CCC2)nn3-c2ccccc2)CC1 [Compound 394, N-(4-acetyl-1,4-diazepane-1-sulfonyl)-3-cyclobutyl-4-[4-(methoxymethyl)piperidin-1-yl]-1-phenyl-1H-pyrazolo[3,4-b]pyridine-6-carboxamide] | 366.87% | 47.9 nM | 194.35% | 99.5 nM | – | –
CS(=O)(=O)NC(=O)c1cc(N2CCC3(C2)CC3(F)F)c2c(C3CCC3)nn(-c3ccccc3)c2n1 (centres unmarked) [Compound 202, 3-cyclobutyl-4-(1,1-difluoro-5-azaspiro[2.4]heptan-5-yl)-N-(methanesulfonyl)-1-phenyl-1H-pyrazolo[3,4-b]pyridine-6-carboxamide] | 299.4% | 255 nM | 147.23% | 595 nM | – | –
CS(=O)(=O)NC(=O)c1cc(-c2ccc(N3CCC(C#N)CC3)cc2)c2c(C3CCC3)nn(C3CCCCC3)c2n1 [Compound 103, 4-[4-(4-cyanopiperidin-1-yl)phenyl]-3-cyclobutyl-1-cyclohexyl-N-(methanesulfonyl)-1H-pyrazolo[3,4-b]pyridine-6-carboxamide] | 501.03% | 409 nM | 263.8% | 536 nM | – | –
CN(C)S(=O)(=O)NC(=O)c1cc(OCC2CCN(C3CCCCC3)CC2)c2c(C3CCC3)nn(-c3ccc(F)cc3)c2n1 [Compound 618, 3-cyclobutyl-4-[(1-cyclohexylpiperidin-4-yl)methoxy]-N-(dimethylsulfamoyl)-1-(4-fluorophenyl)-1H-pyrazolo[3,4-b]pyridine-6-carboxamide] | 295.9% | 702 nM | 112.8% | 421 nM | – | –
COCC1CCN(c2cc(C(=O)NS(=O)(=O)C3CCN(C(=O)OCc4ccccc4)C3)nc3c2c(C2CCC2)nn3-c2ccccc2)CC1 (centres unmarked) [Compound 377, benzyl 3-({3-cyclobutyl-4-[4-(methoxymethyl)piperidin-1-yl]-1-phenyl-1H-pyrazolo[3,4-b]pyridine-6-carbonyl}sulfamoyl)pyrrolidine-1-carboxylate] | 485.55% | 103 nM | 261.3% | 129 nM | – | –
COCC1CCN(c2cc(C(=O)NS(=O)(=O)CCCO)nc3c2c(C2CCC2)nn3-c2ccccc2)CC1 [Compound 367, 3-cyclobutyl-N-(3-hydroxypropane-1-sulfonyl)-4-[4-(methoxymethyl)piperidin-1-yl]-1-phenyl-1H-pyrazolo[3,4-b]pyridine-6-carboxamide] | 526.17% | 81.6 nM | 364.5% | 311 nM | – | –
COc1cccc(-n2nc(C3CCC3)c3c(N4CCC(N5CCOCC5)CC4)cc(C(=O)NS(=O)(=O)N(C)C)nc32)c1 [Compound 499, 3-cyclobutyl-N-(dimethylsulfamoyl)-1-(3-methoxyphenyl)-4-[4-(morpholin-4-yl)piperidin-1-yl]-1H-pyrazolo[3,4-b]pyridine-6-carboxamide] | 439.6% | 71.2 nM | 287.5% | 186 nM | – | –
O=C(NS(=O)(=O)CCCN1CCOCC1)c1cc(OCC2CCOCC2)c2c(C3CCC3)nn(-c3ccccc3)c2n1 [Compound 347, 3-cyclobutyl-N-[3-(morpholin-4-yl)propane-1-sulfonyl]-4-[(oxan-4-yl)methoxy]-1-phenyl-1H-pyrazolo[3,4-b]pyridine-6-carboxamide] | 301.15% | – | 131.4% | – | 54.3 nM | 263 nM
CN(C1CCOCC1)S(=O)(=O)NC(=O)c1cc(N2CCC(N3CCOCC3)CC2)c2c(C3CCC3)nn(-c3ccc(F)cc3)c2n1 [Compound 579, 3-cyclobutyl-1-(4-fluorophenyl)-N-[methyl(oxan-4-yl)sulfamoyl]-4-[4-(morpholin-4-yl)piperidin-1-yl]-1H-pyrazolo[3,4-b]pyridine-6-carboxamide] | 420.5% | 319 nM | 205% | 376 nM | – | –
CN(C)S(=O)(=O)NC(=O)c1cc(OCC2CCN(C3CCC3)CC2)c2c(C3CCC3)nn(-c3ccc(F)cc3)c2n1 [Compound 617, 3-cyclobutyl-4-[(1-cyclobutylpiperidin-4-yl)methoxy]-N-(dimethylsulfamoyl)-1-(4-fluorophenyl)-1H-pyrazolo[3,4-b]pyridine-6-carboxamide] | 324.25% | 978 nM | 137.1% | 871 nM | – | –
CNS(=O)(=O)NC(=O)c1cc(N2CCC(N3CCC(F)CC3)CC2)c2c(C3CCC3)nn(-c3ccc(F)cc3)c2n1 [Compound 650, 3-cyclobutyl-4-(4-fluoro[1,4'-bipiperidin]-1'-yl)-1-(4-fluorophenyl)-N-(methylsulfamoyl)-1H-pyrazolo[3,4-b]pyridine-6-carboxamide] | 592.45% | 96.4 nM | 385.4% | 115 nM | – | –
COCC1CCN(c2cc(C(=O)NS(=O)(=O)CCCN(C)C)nc3c2c(C(C)C)nn3-c2ccc(F)cc2)CC1 [Compound 290, N-[3-(dimethylamino)propane-1-sulfonyl]-1-(4-fluorophenyl)-4-[4-(methoxymethyl)piperidin-1-yl]-3-(propan-2-yl)-1H-pyrazolo[3,4-b]pyridine-6-carboxamide] | 382.2% | 536 nM | 200.4% | 617 nM | – | –
CN(C)S(=O)(=O)NC(=O)c1cc(-c2ccc(CN3CCOCC3)cc2)c2c(OC3CCC3)nn(C3CCCCC3)c2n1 [Compound 481, 3-(cyclobutyloxy)-1-cyclohexyl-N-(dimethylsulfamoyl)-4-{4-[(morpholin-4-yl)methyl]phenyl}-1H-pyrazolo[3,4-b]pyridine-6-carboxamide] | 285.65% | 154 nM | 114.2% | 278 nM | – | –
CN(C)S(=O)(=O)NC(=O)c1cc(C2CCN(CC3CC3)CC2)c2c(C3CCC3)nn(-c3ccc(F)cc3)c2n1 [Compound 613, 3-cyclobutyl-4-[1-(cyclopropylmethyl)piperidin-4-yl]-N-(dimethylsulfamoyl)-1-(4-fluorophenyl)-1H-pyrazolo[3,4-b]pyridine-6-carboxamide] | 152.9% | ≥ 10000 nM | 30.09% | – | – | –
COC1CCN(C2CCN(c3cc(C(=O)NS(=O)(=O)N(C)C)nc4c3c(C3CCC3)nn4-c3ccc(F)cc3)CC2)C1 (centres unmarked) [Compound 524, 3-cyclobutyl-N-(dimethylsulfamoyl)-1-(4-fluorophenyl)-4-[4-(3-methoxypyrrolidin-1-yl)piperidin-1-yl]-1H-pyrazolo[3,4-b]pyridine-6-carboxamide] | 398.75% | 308 nM | 209.35% | 525 nM | – | –
Cc1nn(C2CCCCC2)c2nc(C(=O)NS(C)(=O)=O)cc(-c3cnc(N(C)C)nc3)c12 [Compound 49, 1-cyclohexyl-4-[2-(dimethylamino)pyrimidin-5-yl]-N-(methanesulfonyl)-3-methyl-1H-pyrazolo[3,4-b]pyridine-6-carboxamide] | 338% | 2000 nM | 115.3% | 2570 nM | – | –
O=C(NS(=O)(=O)N1CCCCC1)c1cc(N2CCC(N3CCOCC3)CC2)c2c(C3CCC3)nn(-c3ccc(F)cc3)c2n1 [Compound 568, 3-cyclobutyl-1-(4-fluorophenyl)-4-[4-(morpholin-4-yl)piperidin-1-yl]-N-(piperidine-1-sulfonyl)-1H-pyrazolo[3,4-b]pyridine-6-carboxamide] | 461% | 46.3 nM | 240.65% | 77.5 nM | – | –
COCCC1CCN(c2cc(C(=O)NS(C)(=O)=O)nc3c2c(C2CCC2)nn3-c2ccccc2)CC1 [Compound 183, 3-cyclobutyl-N-(methanesulfonyl)-4-[4-(2-methoxyethyl)piperidin-1-yl]-1-phenyl-1H-pyrazolo[3,4-b]pyridine-6-carboxamide] | 498.57% | 214 nM | 302% | 389 nM | – | –
Cc1cccc(-n2nc(C(C)C)c3c(N4CCC(S(C)(=O)=O)CC4)cc(C(=O)NS(C)(=O)=O)nc32)c1 [Compound 165, N-(methanesulfonyl)-4-[4-(methanesulfonyl)piperidin-1-yl]-1-(3-methylphenyl)-3-(propan-2-yl)-1H-pyrazolo[3,4-b]pyridine-6-carboxamide] | 534.2% | 885 nM | 373.95% | 1780 nM | – | –
